Source: US9801958B2, “Polymer nanoparticle composite and composition for MRI imaging including same” (THE UNIVERSITY OF TOKYO, priority 2013, dated 2017)

How the values were obtained:
[1] = mouse, in vivo
Description: Here, the maximum tolerant dose (MTD) of MnCaP for a mouse is about 1.5 mmol/kg. In this regard, the maximum tolerant dose (MTD) of MnCl2 is about 0.22 mmol/kg, which is about 1/7 the maximum tolerant dose (MTD) of MnCaP. Therefore, the polymer nanoparticle composite of the present invention that uses MnCaP is also extremely good for practical use in MRI contrast in terms of maximum tolerant dose (MTD).

[2] = Relaxivity measurement and T1-weighted imaging in solution, 1T MR; format: physicochemical; settings: 0.1-0.5 mM, distilled water
Experimental: In order to measure the relaxivity of the produced MnCaP nanoparticle composite and compare the contrast effect with existing MnCl2 alone, a preclinical permanent magnet type 1T (Tesla) MR equipment (Icon™, Bruker-Biospin, Germany) was used to measure the relaxivity and acquire T1-weighted images for comparison. For the measurements, the MnCaP nanoparticle composite at a concentration of 0.1-0.5 mM and MnCl2 at the same concentration were used and measured in PCR sample tubes. Distilled water was used for dilution.
The relaxivity was measured using a proton volume coil (inner diameter 35 mm). As the contrast method, a rapid spin-echo technique adopting inversion pulse (Rapid Acquisition with Relaxation Enhancement, RARE) was employed. […]

[3] = tested on: Colon26 liver metastatic tumor; settings: property in clinical practice; cited from earlier work

SMILES	MTD of MnCl2 relative to MTD of MnCaP [1]	maximum tolerant dose (MTD) [1]	longitudinal relaxivity r1 [2]	appearance of normal liver region (clinical contrast agent) [3]	signal change in liver tumor region (clinical contrast agent) [3]
[Cl][Mn][Cl] [MnCl2]	about 1/7	about 0.22 mmol/kg	7.30 to 7.58 mM⁻¹ s⁻¹	–	–
CCOc1ccc(C[C@@H](CN(CCN(CC(=O)[O-])CC(=O)[O-])CC(=O)[O-])N(CC(=O)[O-])CC(=O)[O-])cc1.[Gd+3].[H+].[H+] [Gd-EOB-DTPA]	–	–	–	in white	almost no change
